{"source": "patent US6066310A", "about": "“Diagnostic and therapeutic method for tumor using radiolabeled avidin” (Nihon Medi-Physics Co., Ltd., priority 1997, dated 2000)", "conditions": "2 hours after biotin, LS180 xenografted mice", "protocol": "LS 180-tumor xenografted mice received injection with 300 μg unlabeled avidin and 1-24 hours later injection with 0.3 μg In-111 labeled biotin. […] After 2 hours from the injection of biotin, 4-5 mice per group were sacrificed and measured for distribution of radioactivity.", "key": {"[1]": {"conditions": "biotin 1 hr after pre-targeting of avidin"}, "[2]": {"conditions": "biotin 4 hr after pre-targeting of avidin"}, "[3]": {"conditions": "biotin 8 hr after pre-targeting of avidin"}, "[4]": {"conditions": "biotin 24 hr after pre-targeting of avidin"}, "[5]": {"conditions": "without pre-targeting of avidin"}}, "note": "Like-named read-outs stand apart in the source and are kept apart here."}
{"smiles": "O=C([O-])CN(CCN(CC(=O)[O-])CC(=O)NC(CCCCNC(=O)CCCCC1SCC2NC(=O)NC21)C(=O)O)CCN(CC(=O)[O-])CC(=O)NC(CCCCNC(=O)CCCCC1SCC2NC(=O)NC21)C(=O)O.[111In+3]", "note": "(stereo not drawn) [radiolabeled biotin]", "values": [{"measurement": "Tumor/Blood ratio of radioactivity", "setting": "[1]", "result": "160.3 ± 26.9"}, {"measurement": "Tumor/Bone ratio of radioactivity", "setting": "[1]", "result": "60.7 ± 13.7"}, {"measurement": "Tumor/Kidney ratio of radioactivity", "setting": "[1]", "result": "3.48 ± 0.94"}, {"measurement": "Tumor/Liver ratio of radioactivity", "setting": "[1]", "result": "4.19 ± 1.45"}, {"measurement": "Tumor/Spleen ratio of radioactivity", "setting": "[1]", "result": "5.14 ± 2.58"}, {"measurement": "radioactivity per 1 g of organ: Blood", "setting": "[1]", "result": "0.38 ± 0.08"}, {"measurement": "radioactivity per 1 g of organ: Bone", "setting": "[1]", "result": "0.99 ± 0.08"}, {"measurement": "radioactivity per 1 g of organ: Intestine", "setting": "[1]", "result": "1.03 ± 0.30"}, {"measurement": "radioactivity per 1 g of organ: Kidney", "setting": "[1]", "result": "17.44 ± 2.16"}, {"measurement": "radioactivity per 1 g of organ: Liver", "setting": "[1]", "result": "14.77 ± 2.84"}, {"measurement": "radioactivity per 1 g of organ: Lung", "setting": "[1]", "result": "1.07 ± 0.91"}, {"measurement": "radioactivity per 1 g of organ: Muscle", "setting": "[1]", "result": "0.10 ± 0.06"}, {"measurement": "radioactivity per 1 g of organ: Spleen", "setting": "[1]", "result": "12.85 ± 4.02"}, {"measurement": "radioactivity per 1 g of organ: Stomach", "setting": "[1]", "result": "3.24 ± 0.63"}, {"measurement": "radioactivity per 1 g of organ: Tumor", "setting": "[1]", "result": "59.28 ± 9.89"}, {"measurement": "Tumor/Blood ratio of radioactivity", "setting": "[2]", "result": "159.0 ± 50.9"}, {"measurement": "Tumor/Bone ratio of radioactivity", "setting": "[2]", "result": "107.3 ± 79.1"}, {"measurement": "Tumor/Kidney ratio of radioactivity", "setting": "[2]", "result": "12.26 ± 2.75"}, {"measurement": "Tumor/Liver ratio of radioactivity", "setting": "[2]", "result": "20.89 ± 5.43"}, {"measurement": "Tumor/Spleen ratio of radioactivity", "setting": "[2]", "result": "22.03 ± 9.18"}, {"measurement": "radioactivity per 1 g of organ: Blood", "setting": "[2]", "result": "0.25 ± 0.03"}, {"measurement": "radioactivity per 1 g of organ: Bone", "setting": "[2]", "result": "0.60 ± 0.45"}, {"measurement": "radioactivity per 1 g of organ: Intestine", "setting": "[2]", "result": "0.27 ± 0.06"}, {"measurement": "radioactivity per 1 g of organ: Kidney", "setting": "[2]", "result": "3.30 ± 0.94"}, {"measurement": "radioactivity per 1 g of organ: Liver", "setting": "[2]", "result": "1.92 ± 0.58"}, {"measurement": "radioactivity per 1 g of organ: Lung", "setting": "[2]", "result": "0.32 ± 0.11"}, {"measurement": "radioactivity per 1 g of organ: Muscle", "setting": "[2]", "result": "0.32 ± 0.22"}, {"measurement": "radioactivity per 1 g of organ: Spleen", "setting": "[2]", "result": "2.14 ± 1.24"}, {"measurement": "radioactivity per 1 g of organ: Stomach", "setting": "[2]", "result": "1.08 ± 0.44"}, {"measurement": "radioactivity per 1 g of organ: Tumor", "setting": "[2]", "result": "39.31 ± 11.3"}, {"measurement": "Tumor/Blood ratio of radioactivity", "setting": "[3]", "result": "52.6 ± 23.9"}, {"measurement": "Tumor/Bone ratio of radioactivity", "setting": "[3]", "result": "59.22 ± 35.9"}, {"measurement": "Tumor/Kidney ratio of radioactivity", "setting": "[3]", "result": "7.18 ± 2.66"}, {"measurement": "Tumor/Liver ratio of radioactivity", "setting": "[3]", "result": "48.14 ± 20.2"}, {"measurement": "Tumor/Spleen ratio of radioactivity", "setting": "[3]", "result": "40.87 ± 15.0"}, {"measurement": "radioactivity per 1 g of organ: Blood", "setting": "[3]", "result": "0.20 ± 0.03"}, {"measurement": "radioactivity per 1 g of organ: Bone", "setting": "[3]", "result": "0.20 ± 0.07"}, {"measurement": "radioactivity per 1 g of organ: Intestine", "setting": "[3]", "result": "0.11 ± 0.02"}, {"measurement": "radioactivity per 1 g of organ: Kidney", "setting": "[3]", "result": "1.41 ± 0.29"}, {"measurement": "radioactivity per 1 g of organ: Liver", "setting": "[3]", "result": "0.21 ± 0.04"}, {"measurement": "radioactivity per 1 g of organ: Lung", "setting": "[3]", "result": "0.19 ± 0.10"}, {"measurement": "radioactivity per 1 g of organ: Muscle", "setting": "[3]", "result": "0.06 ± 0.03"}, {"measurement": "radioactivity per 1 g of organ: Spleen", "setting": "[3]", "result": "0.26 ± 0.13"}, {"measurement": "radioactivity per 1 g of organ: Stomach", "setting": "[3]", "result": "0.13 ± 0.09"}, {"measurement": "radioactivity per 1 g of organ: Tumor", "setting": "[3]", "result": "10.49 ± 5.16"}, {"measurement": "Tumor/Blood ratio of radioactivity", "setting": "[4]", "result": "9.72 ± 2.07"}, {"measurement": "Tumor/Bone ratio of radioactivity", "setting": "[4]", "result": "9.42 ± 2.29"}, {"measurement": "Tumor/Kidney ratio of radioactivity", "setting": "[4]", "result": "1.39 ± 0.40"}, {"measurement": "Tumor/Liver ratio of radioactivity", "setting": "[4]", "result": "11.20 ± 3.77"}, {"measurement": "Tumor/Spleen ratio of radioactivity", "setting": "[4]", "result": "14.75 ± 5.59"}, {"measurement": "radioactivity per 1 g of organ: Blood", "setting": "[4]", "result": "0.15 ± 0.07"}, {"measurement": "radioactivity per 1 g of organ: Bone", "setting": "[4]", "result": "0.17 ± 0.13"}, {"measurement": "radioactivity per 1 g of organ: Intestine", "setting": "[4]", "result": "1.18 ± 1.35"}, {"measurement": "radioactivity per 1 g of organ: Kidney", "setting": "[4]", "result": "1.01 ± 0.23"}, {"measurement": "radioactivity per 1 g of organ: Liver", "setting": "[4]", "result": "0.13 ± 0.02"}, {"measurement": "radioactivity per 1 g of organ: Lung", "setting": "[4]", "result": "0.13 ± 0.06"}, {"measurement": "radioactivity per 1 g of organ: Muscle", "setting": "[4]", "result": "0.12 ± 0.16"}, {"measurement": "radioactivity per 1 g of organ: Spleen", "setting": "[4]", "result": "0.10 ± 0.01"}, {"measurement": "radioactivity per 1 g of organ: Stomach", "setting": "[4]", "result": "1.49 ± 1.61"}, {"measurement": "radioactivity per 1 g of organ: Tumor", "setting": "[4]", "result": "1.45 ± 0.70"}, {"measurement": "Tumor/Blood ratio of radioactivity", "setting": "[5]", "result": "5.78 ± 2.44"}, {"measurement": "Tumor/Bone ratio of radioactivity", "setting": "[5]", "result": "5.97 ± 3.51"}, {"measurement": "Tumor/Kidney ratio of radioactivity", "setting": "[5]", "result": "0.55 ± 0.22"}, {"measurement": "Tumor/Liver ratio of radioactivity", "setting": "[5]", "result": "3.90 ± 1.32"}, {"measurement": "Tumor/Spleen ratio of radioactivity", "setting": "[5]", "result": "3.94 ± 1.79"}, {"measurement": "radioactivity per 1 g of organ: Blood", "setting": "[5]", "result": "0.12 ± 0.03"}, {"measurement": "radioactivity per 1 g of organ: Bone", "setting": "[5]", "result": "0.25 ± 0.34"}, {"measurement": "radioactivity per 1 g of organ: Intestine", "setting": "[5]", "result": "0.49 ± 0.46"}, {"measurement": "radioactivity per 1 g of organ: Kidney", "setting": "[5]", "result": "1.23 ± 0.21"}, {"measurement": "radioactivity per 1 g of organ: Liver", "setting": "[5]", "result": "0.17 ± 0.05"}, {"measurement": "radioactivity per 1 g of organ: Lung", "setting": "[5]", "result": "0.14 ± 0.05"}, {"measurement": "radioactivity per 1 g of organ: Muscle", "setting": "[5]", "result": "0.20 ± 0.27"}, {"measurement": "radioactivity per 1 g of organ: Spleen", "setting": "[5]", "result": "0.18 ± 0.05"}, {"measurement": "radioactivity per 1 g of organ: Stomach", "setting": "[5]", "result": "0.12 ± 0.03"}, {"measurement": "radioactivity per 1 g of organ: Tumor", "setting": "[5]", "result": "0.70 ± 0.35"}]}
